We go through 17 compounds from US20240109918A1, “HETEROCYCLIC COMPOUNDS AND USES THEREOF” (Kumquat Biosciences Inc., priority 2022, published 2024).

Structures are written as SMILES. Some results are limits rather than exact numbers.

One assay concerns the target T1, KRASG12D (Homo sapiens, UniProt P01116, G12D).
T1 construct: made in house; host or cells: E. coli BL21 (DE3)
The assay is described as follows: Bio-Biochem-PPI-HTRF Ras-SOS1 interaction assay (KRAS G12D). The format is biochemical. The note with it: 5 nM. The procedure, abridged:
(§1)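 Compounds tested in duplicate (10 μM to 0.01 μM) for disruption of His-hSOS1 binding to GST-tagged wild-type or G12D K-Ras in HEPES pH 7.4 buffer. TR-FRET read (Eu donor, XL665 acceptor) after about 10 min or longer; IC50 derived from the 665/620 nm emission ratio.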

Another assay has as its target T2, KRASwt (Homo sapiens, UniProt P01116).
T2 construct: made in house; host or cells: E. coli BL21 (DE3)
The assay is described as follows: Bio-Biochem-PPI-HTRF Ras-SOS1 interaction assay (KRAS wt). The format is biochemical. Conditions: 5 nM. Summed up: as §1

T2 sequence (P01116 1-188 isoform P01116-2): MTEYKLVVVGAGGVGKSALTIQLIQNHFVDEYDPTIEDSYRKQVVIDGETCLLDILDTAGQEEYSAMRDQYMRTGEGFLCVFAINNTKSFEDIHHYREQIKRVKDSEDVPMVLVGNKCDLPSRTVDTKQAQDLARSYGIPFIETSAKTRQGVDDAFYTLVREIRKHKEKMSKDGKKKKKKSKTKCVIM
T1 sequence (P01116 1-188 isoform P01116-2 G12D): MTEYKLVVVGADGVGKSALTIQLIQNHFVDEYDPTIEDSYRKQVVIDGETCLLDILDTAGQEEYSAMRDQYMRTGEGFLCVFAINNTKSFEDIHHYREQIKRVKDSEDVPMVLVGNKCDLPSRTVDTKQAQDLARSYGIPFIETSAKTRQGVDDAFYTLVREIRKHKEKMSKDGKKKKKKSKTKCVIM

For `N#Cc1c(N)sc2c(F)ccc(-c3c(Cl)cc4c(N5CCOCC6(CN(C(=O)[C@@H]7CC7(F)F)C6)C5)nc(OC[C@@]56CCCN5C[C@H](F)C6)nc4c3F)c12` [compound 239, 2-amino-4-(6-chloro-4-(2-((S)-2,2-difluorocyclopropane-1-carbonyl)-6-oxa-2,9-diazaspiro[3.6]decan-9-yl)-8-fluoro-2-(((2R,7aS)-2-fluorotetrahydro-1H-pyrrolizin-7a(5H)-yl)methoxy)quinazolin-7-yl)-7-fluorobenzo[b]thiophene-3-carbonitrile], the IC50 against KRASG12D and at KRASwt was below 5 µM in each case.

`N#Cc1c(N)sc2c(F)ccc(-c3c(Cl)cc4c(N5CCCCC6(CN(C(=O)CC7CC(F)(F)C7)C6)C5)nc(OC[C@@]56CCCN5C[C@H](F)C6)nc4c3F)c12` [compound 347, 2-amino-4-(6-chloro-4-(2-(2-(3,3-difluorocyclobutyl)acetyl)-2,6-diazaspiro[3.6]decan-6-yl)-8-fluoro-2-(((2R,7aS)-2-fluorotetrahydro-1H-pyrrolizin-7a(5H)-yl)methoxy)quinazolin-7-yl)-7-fluorobenzo[b]thiophene-3-carbonitrile]: the IC50 against KRASG12D and on KRASwt was below 5 µM in each case.

On to `C#Cc1c(F)ccc2cc(O)cc(-c3ncc4c(N5CCCCC6(CN(C(=O)[C@@H]7CC7(F)F)C6)C5)nc(OC[C@@]56CCCN5C[C@H](F)C6)nc4c3F)c12` [compound 334, ((S)-2,2-difluorocyclopropyl) (6-(7-(8-ethynyl-7-fluoro-3-hydroxynaphthalen-1-yl)-8-fluoro-2-(((2R,7aS)-2-fluorotetrahydro-1H-pyrrolizin-7a(5H)-yl)methoxy)pyrido[4,3-d]pyrimidin-4-yl)-2,6-diazaspiro[3.6]decan-2-yl)methanone], for which the IC50 on KRASG12D and against KRASwt was below 5 µM each time.

On to `N#CCC1(C(=O)N2CC3(CCCCN(c4nc(OC[C@@]56CCCN5C[C@H](F)C6)nc5c(F)c(-c6ccc(F)c7sc(N)c(C#N)c67)c(Cl)cc45)C3)C2)CCC1` [compound 216, 2-amino-4-(6-chloro-4-(2-(1-(cyanomethyl)cyclobutane-1-carbonyl)-2,6-diazaspiro[3.6]decan-6-yl)-8-fluoro-2-(((2R,7aS)-2-fluorotetrahydro-1H-pyrrolizin-7a(5H)-yl)methoxy)quinazolin-7-yl)-7-fluorobenzo[b]thiophene-3-carbonitrile], for which the IC50 at KRASG12D and on KRASwt was below 5 µM each time.

For `N#Cc1c(N)sc2c(F)ccc(-c3c(Cl)cc4c(N5CCCCC6(CN(C(=O)CN7CCOCC7)C6)C5)nc(OC[C@@]56CCCN5C[C@H](F)C6)nc4c3F)c12` [compound 335, 2-amino-4-(6-chloro-8-fluoro-2-(((2R,7aS)-2-fluorotetrahydro-1H-pyrrolizin-7a(5H)-yl)methoxy)-4-(2-(2-morpholinoacetyl)-2,6-diazaspiro[3.6]decan-6-yl)quinazolin-7-yl)-7-fluorobenzo[b]thiophene-3-carbonitrile], the IC50 against KRASG12D and at KRASwt was below 5 µM in each case.

Regarding `N#Cc1c(N)sc2c(F)ccc(-c3c(Cl)cc4c(N5CCCC6(CN(C(=O)[C@@H]7C[C@H]7C#N)C6)C5)nc(OC[C@@]56CCCN5C[C@H](F)C6)nc4c3F)c12` [compound 104, 2-amino-4-(6-chloro-4-(2-((1R,2R)-2-cyanocyclopropane-1-carbonyl)-2,6-diazaspiro[3.5]nonan-6-yl)-8-fluoro-2-(((2R,7aS)-2-fluorotetrahydro-1H-pyrrolizin-7a(5H)-yl)methoxy)quinazolin-7-yl)-7-fluorobenzo[b]thiophene-3-carbonitrile], the IC50 against KRASG12D and at KRASwt was below 5 µM each time.

In the case of `CN1CCC[C@H]1COc1nc(N2CCCC3(CN(C(N)=O)C3)C2)c2cc(Cl)c(-c3cccc4sc(N)nc34)c(F)c2n1` [compound 124, 6-(7-(2-aminobenzo[d]thiazol-4-yl)-6-chloro-8-fluoro-2-(((S)-1-methylpyrrolidin-2-yl)methoxy)quinazolin-4-yl)-2,6-diazaspiro[3.5]nonane-2-carboxamide], the IC50 against KRASG12D and against KRASwt was below 5 µM throughout.

On to `N#Cc1c(N)sc2c(F)ccc(-c3c(Cl)cc4c(N5CCC(O)CC6(CN(C(=O)[C@@H]7CC7(F)F)C6)C5)nc(OC[C@@]56CCCN5C[C@H](F)C6)nc4c3F)c12` (stereo partly drawn) [compound 249, 2-amino-4-(6-chloro-4-(2-((S)-2,2-difluorocyclopropane-1-carbonyl)-9-hydroxy-2,6-diazaspiro[3.6]decan-6-yl)-8-fluoro-2-(((2R,7aS)-2-fluorotetrahydro-1H-pyrrolizin-7a(5H)-yl)methoxy)quinazolin-7-yl)-7-fluorobenzo[b]thiophene-3-carbonitrile], for which the IC50 against KRASG12D and against KRASwt was below 5 µM in each case.

Take `CN(C)C/C=C/C(=O)N1CC2(CCN(c3nc(OC[C@@]45CCCN4C[C@H](F)C5)nc4c(F)c(-c5ccc(F)c6sc(N)c(C#N)c56)c(Cl)cc34)C2)C1` [compound 183, 2-amino-4-(6-chloro-4-(2-((E)-4-(dimethylamino)but-2-enoyl)-2,6-diazaspiro[3.4]octan-6-yl)-8-fluoro-2-(((2R,7aS)-2-fluorotetrahydro-1H-pyrrolizin-7a(5H)-yl)methoxy)quinazolin-7-yl)-7-fluorobenzo[b]thiophene-3-carbonitrile]: the IC50 at KRASG12D and against KRASwt was below 5 µM in each case.

Regarding `NC(=O)N1CC2(CCN(c3nc(OC[C@@]45CCCN4C[C@H](F)C5)nc4c(F)c(-c5ccc(F)c6sc(N)nc56)c(Cl)cc34)CC2)C1` [compound 157, 7-(7-(2-amino-7-fluorobenzo [d]thiazol-4-yl)-6-chloro-8-fluoro-2-(((2R,7aS)-2-fluorotetrahydro-1H-pyrrolizin-7a(5H)-yl)methoxy)quinazolin-4-yl)-2,7-diazaspiro[3.5]nonane-2-carboxamide], the IC50 against KRASG12D and on KRASwt was below 5 µM throughout.

For `COC1CN(C(=O)N2CC3(CCCN(c4nc(O[C@@H](C)[C@@H]5CCCN5C)nc5c(F)c(-c6ccc(F)c7sc(N)c(C#N)c67)c(Cl)cc45)C3)C2)C1` [compound 205, 2-amino-4-(6-chloro-8-fluoro-4-(2-(3-methoxyazetidine-1-carbonyl)-2,6-diazaspiro[3.5]nonan-6-yl)-2-((S)-1-((S)-1-methylpyrrolidin-2-yl)ethoxy)quinazolin-7-yl)-7-fluorobenzo[b] thiophene-3-carbonitrile], the 50% inhibitory concentration (IC50) at KRASG12D and at KRASwt was below 5 µM each time.

Take `N#Cc1c(N)sc2c(F)ccc(-c3c(Cl)cc4c(N5CCCC6(CCNC6)C5)nc(OC[C@@]56CCCN5C[C@H](F)C6)nc4c3F)c12` (stereo partly drawn) [compound 111, 2-amino-4-(6-chloro-8-fluoro-2-(((2R,7aS)-2-fluorotetrahydro-1H-pyrrolizin-7a(5H)-yl)methoxy)-4-(2,7-diazaspiro[4.5]decan-7-yl)quinazolin-7-yl)-7-fluorobenzo[b]thiophene-3-carbonitrile]: the IC50 against KRASG12D and against KRASwt was below 5 µM throughout.

For the compound `N#Cc1c(N)sc2c(F)ccc(-c3c(Cl)cc4c(N5CCCCC6(CN(C(=O)N7CCOCC7)C6)C5)nc(OC[C@@]56CCCN5C[C@H](F)C6)nc4c3F)c12` [compound 325, 2-amino-4-(6-chloro-8-fluoro-2-(((2R,7aS)-2-fluorotetrahydro-1H-pyrrolizin-7a(5H)-yl)methoxy)-4-(2-(morpholine-4-carbonyl)-2,6-diazaspiro[3.6]decan-6-yl)quinazolin-7-yl)-7-fluorobenzo[b]thiophene-3-carbonitrile], the IC50 on KRASG12D and against KRASwt was below 5 µM throughout.

Regarding `N#Cc1c(N)sc2c(F)ccc(-c3c(Cl)cc4c(N5CCCCC6(CN(C(=O)C7(F)CC7)C6)C5)nc(OC[C@@]56CCCN5C[C@H](F)C6)nc4c3F)c12` [compound 253, 2-amino-4-(6-chloro-8-fluoro-4-(2-(1-fluorocyclopropane-1-carbonyl)-2,6-diazaspiro[3.6]decan-6-yl)-2-(((2R,7aS)-2-fluorotetrahydro-1H-pyrrolizin-7a(5H)-yl)methoxy)quinazolin-7-yl)-7-fluorobenzo[b]thiophene-3-carbonitrile], the IC50 on KRASG12D and at KRASwt was below 5 µM each time.

With `N#Cc1c(N)sc2c(F)ccc(-c3c(Cl)cc4c(N5CCCCC6(CN(C(=O)COC(F)(F)C(F)(F)F)C6)C5)nc(OC[C@@]56CCCN5C[C@H](F)C6)nc4c3F)c12` [compound 302, 2-amino-4-(6-chloro-8-fluoro-2-(((2R,7aS)-2-fluorotetrahydro-1H-pyrrolizin-7a(5H)-yl)methoxy)-4-(2-(2-(perfluoroethoxy)acetyl)-2,6-diazaspiro[3.6]decan-6-yl)quinazolin-7-yl)-7-fluorobenzo[b]thiophene-3-carbonitrile], the IC50 on KRASG12D and against KRASwt was below 5 µM in each case.

Regarding `COc1nc(N2CCCCC3(CN(C(C)=O)C3)C2)c2cc(Cl)c(-c3ccc(F)c4sc(N)c(C#N)c34)c(F)c2n1` [compound 256, 4-(4-(2-acetyl-2,6-diazaspiro[3.6]decan-6-yl)-6-chloro-8-fluoro-2-methoxyquinazolin-7-yl)-2-amino-7-fluorobenzo[b]thiophene-3-carbonitrile], the IC50 against KRASG12D and against KRASwt was below 5 µM in each case.

With `C#Cc1c(F)ccc2cc(O)cc(-c3ncc4c(N5CCOCC6(CN(C(=O)[C@@H]7CC7(F)F)C6)C5)nc(OC[C@@]56CCCN5C[C@H](F)C6)nc4c3F)c12` [compound 301, ((S)-2,2-difluorocyclopropyl) (9-(7-(8-ethynyl-7-fluoro-3-hydroxynaphthalen-1-yl)-8-fluoro-2-(((2R,7aS)-2-fluorotetrahydro-1H-pyrrolizin-7a(5H)-yl)methoxy)pyrido[4,3-d]pyrimidin-4-yl)-6-oxa-2,9-diazaspiro[3.6]decan-2-yl)methanone], the IC50 against KRASG12D and on KRASwt was below 5 µM each time.
